Laboratory results as given in the NIST ThermoML archive (doi:10.1016/j.jct.2017.02.005).
Several values for one entry are separate records, joined by “and”; a condition that tells them apart may be missing. Equal entries are not always repeated.

Conditions: Liquid, Ebulliometric method (Recirculating still)

CC(C)O [propan-2-ol]
Conditions | vapor or sublimation pressure
317.07 K | 17.46 kPa
317.65 K | 17.98 kPa
318.1 K | 18.39 kPa
318.73 K | 19.01 kPa
319.19 K | 19.48 kPa
319.72 K | 20.03 kPa
320.19 K | 20.52 kPa
320.65 K | 21 kPa
321.11 K | 21.49 kPa
321.58 K | 22.03 kPa
322.07 K | 22.55 kPa
322.47 K | 23.03 kPa
322.91 K | 23.52 kPa
323.32 K | 24.02 kPa
323.71 K | 24.51 kPa
324.13 K | 25.03 kPa
324.49 K | 25.48 kPa
324.94 K | 26.04 kPa
325.3 K | 26.52 kPa
325.72 K | 27.08 kPa
326.18 K | 27.69 kPa
326.53 K | 28.19 kPa
326.99 K | 28.83 kPa
327.46 K | 29.45 kPa
327.86 K | 30.08 kPa
328.47 K | 30.96 kPa
329.06 K | 31.86 kPa
329.64 K | 32.76 kPa
330.26 K | 33.77 kPa
330.73 K | 34.52 kPa
331.32 K | 35.48 kPa
331.83 K | 36.37 kPa
332.44 K | 37.45 kPa
332.99 K | 38.41 kPa
333.5 K | 39.33 kPa
334.1 K | 40.41 kPa
334.6 K | 41.44 kPa
335.12 K | 42.44 kPa
335.64 K | 43.46 kPa
336.11 K | 44.38 kPa
336.55 K | 45.32 kPa
337.07 K | 46.34 kPa
337.5 K | 47.28 kPa
337.98 K | 48.35 kPa
338.45 K | 49.34 kPa
338.86 K | 50.25 kPa
339.3 K | 51.26 kPa
339.72 K | 52.33 kPa
340.04 K | 53.01 kPa
340.43 K | 53.94 kPa
340.89 K | 55.03 kPa
341.25 K | 55.92 kPa
341.69 K | 56.96 kPa
342.09 K | 58.05 kPa
342.48 K | 59.04 kPa
342.82 K | 59.93 kPa
343.2 K | 60.91 kPa
343.59 K | 61.94 kPa
343.96 K | 62.98 kPa
344.32 K | 63.92 kPa
344.68 K | 64.96 kPa
345.05 K | 65.97 kPa
345.35 K | 66.84 kPa
345.75 K | 68.03 kPa
346.13 K | 69.14 kPa
346.46 K | 70.12 kPa
347.11 K | 72.04 kPa
347.79 K | 74.18 kPa
348.37 K | 75.96 kPa
348.95 K | 77.81 kPa
349.61 K | 79.96 kPa
350.08 K | 81.58 kPa
350.75 K | 83.94 kPa
351.21 K | 85.47 kPa
351.69 K | 87.17 kPa
352.09 K | 88.63 kPa
352.54 K | 90.24 kPa
353.16 K | 92.57 kPa
353.66 K | 94.46 kPa
354.2 K | 96.49 kPa
354.59 K | 98.05 kPa
355.09 K | 100 kPa and 100.03 kPa
355.38 K | 101.28 kPa
355.93 K | 103.44 kPa
356.4 K | 105.38 kPa
356.76 K | 106.91 kPa
357.16 K | 108.63 kPa
357.52 K | 110.13 kPa
357.93 K | 111.88 kPa
358.35 K | 113.79 kPa
358.65 K | 115.1 kPa
358.98 K | 116.64 kPa
359.43 K | 118.64 kPa
359.77 K | 120.24 kPa
360.16 K | 122.11 kPa
360.57 K | 124.03 kPa
360.9 K | 125.62 kPa
361.26 K | 127.36 kPa
361.62 K | 129.08 kPa
361.98 K | 130.93 kPa
362.26 K | 132.35 kPa
362.52 K | 133.65 kPa

O [water]
Conditions | vapor or sublimation pressure [kPa]
372.81 K | 100
372.84 K | 100
